Measurements published in patent publication EP3974434B1, “MACROLIDE DERIVATIVES, PREPARATION METHOD AND APPLICATION THEREOF” (Zhejiang Hisun Pharmaceutical Co., Ltd., priority 2019, dated 2020).

What was measured:
Type in all cases: biochemical
ROS1 = molecular target: T1, ROS1 (Homo sapiens, UniProt P08922); assay: HTRF KinEASE-TK kinase activity inhibition assay, ROS1; conditions: ATP 1 µM
T1 construct: purchased SignalChem R14-11G-10
Excerpt: (§1) The following method was used to determine the inhibition degrees of the compounds of the present invention on the activity of recombinant human ROS1 kinase in vitro. In this method, HTRF®KinEASE-TK tyrosine kinase kit (article No. 62TK0PEB) of Cisbio company was used, the principle of the kit was based on time-resolved fluorescence resonance energy transfer (TF-FRET), and the inhibition of the compounds on the activity of the ROS1 kinase was reflected by determining a phosphorylation degree of a biotinylated polypeptide substrate mediated by ROS1 kinase. For detailed experimental operation, please refer to the kit instruction. […]
(§2) The experimental flow was briefly described as follows: a test compound was first dissolved in DMSO to prepare a storage solution, and then diluted in gradient with a buffer provided in the kit. […] An ATP Km value concentration of each ROS1 protein was determined by using an ATP solution diluted in gradient (Sangon Biotech (Shanghai) Co., Ltd., A600311). […] After incubation, fluorescence intensity values of each well at an excitation wavelength of 304 nm, and emission wavelengths of 620 nm and 665 nM were determined in a TF-FRET mode on a microplate reader, and the fluorescence intensity ratio 665/620 of each hole was calculated. […]

ALK(L1196M, G1202R) = molecular target: T2, ALK(L1196M, G1202R) (Homo sapiens, UniProt Q9UM73, G1202R/L1196M); assay: HTRF KinEASE-TK kinase activity inhibition assay, ALK(L1196M, G1202R); conditions: ATP 25 µM
T2 construct: purchased SignalChem A19-12NG-10
Excerpt: The following method was used to determine the inhibition degrees of the compounds of the present invention on the activities of recombinant human ALK(G1202R) and ALK(L1196M, G1202R) kinases in vitro. In this method, HTRF®KinEASE-TK tyrosine kinase kit (article No. 62TK0PEB) of Cisbio company was used, the principle of the kit was based on time-resolved fluorescence resonance energy transfer (TF-FRET), and the inhibitions of the compounds on the activities of the ALK(G1202R) and ALK(L1196M, G1202R) kinases were reflected by determining a phosphorylation degree of a biotinylated polypeptide substrate mediated by ALK kinase. For detailed experimental operation, please refer to the kit instruction. […]
as §2, with “ALK” for “ROS1”

ROS1(G2032R) = molecular target: T3, ROS1(G2032R) (Homo sapiens, UniProt P08922, G2032R); assay: HTRF KinEASE-TK kinase activity inhibition assay, ROS1(G2032R); conditions: ATP 0.5 µM
T3 construct: purchased SignalChem R14-12BG-10
Excerpt: as §1, §2

T2 sequence (Q9UM73 19-1620 L1196M/G1202R): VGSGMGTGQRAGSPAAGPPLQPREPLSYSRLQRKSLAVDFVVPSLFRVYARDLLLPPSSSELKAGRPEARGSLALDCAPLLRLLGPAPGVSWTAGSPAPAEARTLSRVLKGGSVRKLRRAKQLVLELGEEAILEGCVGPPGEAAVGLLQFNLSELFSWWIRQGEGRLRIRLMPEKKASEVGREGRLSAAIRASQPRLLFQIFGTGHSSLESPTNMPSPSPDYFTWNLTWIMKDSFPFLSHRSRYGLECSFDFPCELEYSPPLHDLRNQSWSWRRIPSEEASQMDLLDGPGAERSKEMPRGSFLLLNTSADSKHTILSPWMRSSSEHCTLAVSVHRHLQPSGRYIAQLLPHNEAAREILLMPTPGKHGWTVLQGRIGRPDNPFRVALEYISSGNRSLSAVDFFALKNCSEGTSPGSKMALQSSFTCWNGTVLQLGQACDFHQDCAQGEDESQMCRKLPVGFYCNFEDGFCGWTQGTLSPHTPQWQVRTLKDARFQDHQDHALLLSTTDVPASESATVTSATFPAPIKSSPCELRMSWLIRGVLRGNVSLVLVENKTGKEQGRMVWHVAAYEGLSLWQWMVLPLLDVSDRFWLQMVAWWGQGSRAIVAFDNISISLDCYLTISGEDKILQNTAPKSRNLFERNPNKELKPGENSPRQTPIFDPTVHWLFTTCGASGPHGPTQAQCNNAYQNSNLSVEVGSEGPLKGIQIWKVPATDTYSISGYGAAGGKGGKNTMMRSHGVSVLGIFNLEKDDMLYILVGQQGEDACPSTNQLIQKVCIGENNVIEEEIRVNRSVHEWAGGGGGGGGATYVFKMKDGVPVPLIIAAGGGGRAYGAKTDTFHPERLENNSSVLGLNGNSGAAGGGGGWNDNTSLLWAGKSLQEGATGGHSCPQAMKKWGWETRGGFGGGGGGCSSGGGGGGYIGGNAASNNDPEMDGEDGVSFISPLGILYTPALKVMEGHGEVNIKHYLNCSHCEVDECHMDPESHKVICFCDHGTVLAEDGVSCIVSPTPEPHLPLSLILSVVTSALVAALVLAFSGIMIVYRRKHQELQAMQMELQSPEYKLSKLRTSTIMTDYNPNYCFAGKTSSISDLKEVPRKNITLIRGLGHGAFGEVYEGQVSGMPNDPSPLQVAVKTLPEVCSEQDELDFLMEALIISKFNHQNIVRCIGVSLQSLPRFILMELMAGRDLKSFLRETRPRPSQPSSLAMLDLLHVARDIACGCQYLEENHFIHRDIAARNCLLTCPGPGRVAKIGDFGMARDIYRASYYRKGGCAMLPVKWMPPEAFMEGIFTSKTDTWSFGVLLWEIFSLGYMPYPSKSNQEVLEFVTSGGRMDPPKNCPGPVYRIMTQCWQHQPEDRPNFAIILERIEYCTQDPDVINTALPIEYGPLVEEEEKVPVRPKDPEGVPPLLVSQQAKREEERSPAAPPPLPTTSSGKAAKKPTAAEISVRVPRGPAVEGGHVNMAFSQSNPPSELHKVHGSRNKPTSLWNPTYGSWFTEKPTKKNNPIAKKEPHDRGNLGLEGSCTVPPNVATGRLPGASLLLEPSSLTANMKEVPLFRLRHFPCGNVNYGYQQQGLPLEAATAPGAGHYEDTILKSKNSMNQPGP
T3 sequence (P08922 28-2347 G2032R): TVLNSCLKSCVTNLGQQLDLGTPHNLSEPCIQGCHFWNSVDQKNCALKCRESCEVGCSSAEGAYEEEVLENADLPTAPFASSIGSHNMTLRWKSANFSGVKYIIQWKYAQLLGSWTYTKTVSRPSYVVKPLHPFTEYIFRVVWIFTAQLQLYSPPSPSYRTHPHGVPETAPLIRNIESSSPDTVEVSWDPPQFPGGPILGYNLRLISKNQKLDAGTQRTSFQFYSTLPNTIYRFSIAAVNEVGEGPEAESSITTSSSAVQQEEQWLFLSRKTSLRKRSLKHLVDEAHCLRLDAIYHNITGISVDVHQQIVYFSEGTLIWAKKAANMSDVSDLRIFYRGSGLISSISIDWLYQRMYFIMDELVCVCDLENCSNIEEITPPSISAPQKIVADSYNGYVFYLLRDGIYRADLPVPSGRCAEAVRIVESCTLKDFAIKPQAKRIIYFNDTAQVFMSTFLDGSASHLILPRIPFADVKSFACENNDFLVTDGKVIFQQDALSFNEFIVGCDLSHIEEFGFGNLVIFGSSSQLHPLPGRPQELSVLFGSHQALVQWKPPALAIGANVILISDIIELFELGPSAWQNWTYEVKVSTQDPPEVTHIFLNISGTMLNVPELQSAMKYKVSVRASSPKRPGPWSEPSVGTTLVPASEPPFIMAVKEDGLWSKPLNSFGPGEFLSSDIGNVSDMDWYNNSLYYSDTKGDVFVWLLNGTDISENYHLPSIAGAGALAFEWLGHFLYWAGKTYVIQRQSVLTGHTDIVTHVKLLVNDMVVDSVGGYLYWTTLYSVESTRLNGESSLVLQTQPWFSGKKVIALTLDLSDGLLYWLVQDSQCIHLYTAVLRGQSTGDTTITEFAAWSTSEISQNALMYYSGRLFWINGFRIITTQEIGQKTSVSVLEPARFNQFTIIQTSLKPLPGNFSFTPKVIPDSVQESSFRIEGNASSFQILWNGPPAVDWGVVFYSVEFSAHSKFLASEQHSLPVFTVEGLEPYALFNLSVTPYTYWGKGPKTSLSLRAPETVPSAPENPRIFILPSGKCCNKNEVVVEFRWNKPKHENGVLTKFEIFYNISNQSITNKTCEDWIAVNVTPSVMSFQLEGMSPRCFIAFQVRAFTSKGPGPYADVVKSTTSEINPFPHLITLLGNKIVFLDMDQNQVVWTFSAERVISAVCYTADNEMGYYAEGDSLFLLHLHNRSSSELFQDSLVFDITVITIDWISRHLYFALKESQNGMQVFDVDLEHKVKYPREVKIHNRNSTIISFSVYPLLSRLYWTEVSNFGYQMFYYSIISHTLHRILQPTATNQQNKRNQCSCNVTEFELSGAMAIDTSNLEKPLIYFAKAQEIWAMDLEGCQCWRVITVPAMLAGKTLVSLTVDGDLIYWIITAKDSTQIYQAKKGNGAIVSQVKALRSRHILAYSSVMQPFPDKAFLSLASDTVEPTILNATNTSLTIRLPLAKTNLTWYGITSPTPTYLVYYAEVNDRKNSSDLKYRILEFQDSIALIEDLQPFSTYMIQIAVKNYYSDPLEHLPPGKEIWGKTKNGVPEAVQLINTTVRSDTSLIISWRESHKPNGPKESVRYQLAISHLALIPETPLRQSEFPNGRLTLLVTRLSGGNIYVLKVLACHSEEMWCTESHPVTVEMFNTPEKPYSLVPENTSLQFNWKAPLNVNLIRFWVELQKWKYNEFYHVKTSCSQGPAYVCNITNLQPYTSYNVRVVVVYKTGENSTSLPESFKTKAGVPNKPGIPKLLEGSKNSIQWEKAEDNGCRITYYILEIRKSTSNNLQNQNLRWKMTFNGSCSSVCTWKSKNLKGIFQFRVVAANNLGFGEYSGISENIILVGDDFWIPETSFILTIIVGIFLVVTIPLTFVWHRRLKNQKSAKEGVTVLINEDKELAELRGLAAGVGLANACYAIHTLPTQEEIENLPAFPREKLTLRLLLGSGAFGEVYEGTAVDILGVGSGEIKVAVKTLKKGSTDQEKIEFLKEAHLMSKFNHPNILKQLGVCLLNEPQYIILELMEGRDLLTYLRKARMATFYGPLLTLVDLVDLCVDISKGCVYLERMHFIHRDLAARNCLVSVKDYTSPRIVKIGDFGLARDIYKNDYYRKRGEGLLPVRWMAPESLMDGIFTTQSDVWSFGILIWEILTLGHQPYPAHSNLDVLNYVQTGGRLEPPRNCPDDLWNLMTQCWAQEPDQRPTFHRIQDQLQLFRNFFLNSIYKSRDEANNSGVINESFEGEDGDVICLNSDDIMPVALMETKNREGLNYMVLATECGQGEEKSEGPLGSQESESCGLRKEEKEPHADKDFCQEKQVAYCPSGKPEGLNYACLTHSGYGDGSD
T1 sequence (P08922 28-2347): as the sequence (P08922 28-2347 G2032R) above, with R2005G counted along it

Compound | IC50 (ROS1) [nM] | IC50 (ALK(L1196M, G1202R)) [nM] | IC50 (ROS1(G2032R)) [nM]
C[C@H]1Nc2ccn3ncc(c3n2)C(=O)NC[C@@]2(C)Cc3cc(F)cc1c3O2 [Example 8, (3R,11R)-6-fluoro-3,11-dimethyl-10-oxa-2,13,17,1 8,21-pentaazapentacyclo[13.5.2.1^8,11.0^4,9.0^18,22]tric osa-1(21),4,6,8,15(22),16,19-heptaen-14-one] | 0.36 | 20.7 | 0.34
C[C@H]1Nc2ccn3nc(N)c(c3n2)C(=O)NC[C@@]2(C)Cc3cc(F)cc1c3O2 [Example 25, (3R,11R)-16-amino-6-fluoro-3,11-dimethyl-10-oxa-2,13,17,18,21-pentaazapentacyclo[13.5.2.1^8,11.0^4,9. 0^18,22]tricosa-1(21),4,6,8,15(22),16,19-heptaen-14-one] | 0.84 | 24.2 | 2.11
